The results in this text go back to ChEMBL document CHEMBL2439958, “Inhibitory effect of oxygenated cholestan-3β-ol derivatives on the growth of Mycobacterium tuberculosis” (Bioorg Med Chem Lett, 2013).

For one test, the system named is Vero. Nature of the test: Cytotoxicity against african green monkey Vero cells by tetrazolium dye reduction assay. The test is classed as ADME, cell-based. Conditions: Chlorocebus sabaeus.
Test [1] can be described thus: Selectivity index, ratio of IC50 for african green monkey Vero cells to MIC90 for Mycobacterium tuberculosis H37Rv. The test is classed as functional.
The test system of test [2] is Mycobacterium tuberculosis. Nature of the test: microbe, parasite or virus in culture. The test is classed as functional. The settings on record: H37Rv.

Values after ≈ are worked out from the molar mass of the structure shown.

The term IC50 denotes the midpoint of a concentration-inhibition curve. On to `CC(C)CCC[C@@H](C)[C@H]1CC[C@H]2[C@@H]3CC(=O)[C@H]4C[C@@H](O)CC[C@]4(C)[C@H]3CC[C@]12C` [5alpha-CHOLESTAN-3beta-OL-6-ONE], for which the IC50 with Vero was found to be 92 µM. The “Selectivity Index” value in test [1] was 15.3. In test [2], the MIC90 is 6 µM (≈ 2.42 µg/mL).

On to `C[C@@H](CO)CCC[C@@H](C)[C@H]1[C@@H](O)C[C@H]2[C@@H]3CC=C4C[C@@H](O)CC[C@]4(C)[C@H]3CC[C@]12C`, for which the half-maximal inhibitory concentration (IC50) with Vero was more than 128 µM. Besides, the “Selectivity Index” value in test [1] is given as more than 21. The same compound had an MIC90 in test [2] of 6 µM (≈ 2.51 µg/mL).

Consider `NNC(=O)c1ccncc1` [ISONIAZID], for which the IC50 with Vero was more than 128 µM. For the same compound, the “Selectivity Index” value in test [1] was more than 320. The compound also had an MIC90 in test [2] of 0.4 µM (≈ 0.0549 µg/mL).

For the compound `CC(C)CCC[C@@H](C)[C@H]1CC[C@H]2[C@@H]3[C@H](F)C(=O)[C@H]4C[C@@H](O)CC[C@]4(C)[C@H]3CC[C@]12C`, in the test on Vero, the IC50 was determined as 40 µM. The “Selectivity Index” value in test [1] was 8.7. This compound returned an MIC90 in test [2] of 4.6 µM (≈ 1.94 µg/mL).

In the case of `CC(C)CCC[C@@H](C)[C@H]1CC[C@H]2[C@@H]3CC(=O)[C@H]4C[C@@H](O[Si](C)(C)C)CC[C@]4(C)[C@H]3CC[C@]12C`, in the test with Vero, 38 µM corresponded to half-maximal inhibition (IC50). Also, the “Selectivity Index” value in test [1] turned out to be 10.9. In test [2], this compound had an MIC90 of 3.5 µM (≈ 1.66 µg/mL).

Take `CO[C@H]1/C=C/O[C@@]2(C)Oc3c(C)c(O)c4c(O)c(c(/C=N/N5CCN(C)CC5)c(O)c4c3C2=O)NC(=O)/C(C)=C\C=C\[C@H](C)[C@H](O)[C@@H](C)[C@@H](O)[C@@H](C)[C@H](OC(C)=O)[C@@H]1C` [RIFAMPIN]: the MIC90 in test [2] is 0.07 µM (≈ 0.0576 µg/mL).

The compound `CC(=O)O[C@H]1CC[C@@]2(C)[C@@H](CC(=O)[C@@H]3[C@@H]2CC[C@]2(C)[C@@H]([C@H](C)CCCC(C)C)CC[C@@H]32)C1` gave an IC50 in the test on Vero of more than 128 µM. The same compound displayed an MIC90 in test [2] of more than 128 µM.

`CC(C)CCC[C@@H](C)[C@H]1CC[C@H]2[C@@H]3[C@@H](O)C[C@H]4C[C@@H](O)CC[C@]4(C)[C@H]3CC[C@]12C` returned an MIC90 in test [2] of more than 128 µM.

For the compound `C[C@@H]1CC[C@@]2(OC1)O[C@H]1C[C@H]3[C@@H]4CC=C5C[C@@H](O)CC[C@]5(C)[C@H]4CC[C@]3(C)[C@H]1[C@@H]2C` [DISOGENIN], the MIC90 in test [2] was more than 128 µM.

Take `CC(=O)O[C@H]1CC[C@@]2(C)C(=CC(=O)[C@H]3[C@@H]4CC[C@H]([C@H](C)CCCC(C)(C)O)[C@@]4(C)CC[C@@H]32)C1`: the 50% inhibitory concentration (IC50) in the test with Vero was more than 128 µM. The MIC90 in test [2] was more than 128 µM.

Turning to `CC(C)CCC[C@@H](C)[C@H]1CC[C@H]2[C@@H]3C(=O)C=C4C[C@@H](O)CC[C@]4(C)[C@H]3CC[C@]12C` [7-OXOCHOLESTEROL], the IC50 in the test on Vero amounted to 75 µM. Also, the “Selectivity Index” value in test [1] is less than 0.6. The compound further yielded an MIC90 in test [2] of more than 128 µM.

Take `CC(C)CCC[C@@H](C)[C@H]1CC[C@H]2[C@@H]3[C@H](F)[C@@H](O)[C@H]4C[C@@H](O)CC[C@]4(C)[C@H]3CC[C@]12C`: half-maximal inhibition in the test with Vero (IC50) was put at 41 µM. The “Selectivity Index” value in test [1] is recorded as less than 0.4. Moreover, in test [2], the MIC90 was more than 128 µM.

Regarding `CC(C)CCC[C@@H](C)[C@H]1CC[C@H]2[C@@H]3C(=O)C[C@H]4C[C@@H](O)CC[C@]4(C)[C@H]3CC[C@]12C`, the IC50 in the test on Vero was found to be 62 µM. The “Selectivity Index” value in test [1] amounted to 7.8. In test [2], this compound showed an MIC90 of 8 µM (≈ 3.22 µg/mL).

`CC(=O)O[C@H]1CC[C@@]2(C)C(=CC[C@H]3[C@@H]4CC[C@H]([C@H](C)CCCC(C)(C)O)[C@@]4(C)CC[C@@H]32)C1` came in with an MIC90 in test [2] of more than 128 µM.

`CC(C)CCC[C@@H](C)[C@H]1CC[C@H]2[C@@H]3[C@H](O)C[C@H]4C[C@@H](O)CC[C@]4(C)[C@H]3CC[C@]12C` yielded an MIC90 in test [2] of more than 128 µM.

Take `C[C@@H](CO)CCC[C@@H](C)[C@H]1CC[C@H]2[C@@H]3CC=C4C[C@@H](O)CC[C@]4(C)[C@H]3CC[C@]12C`: the MIC90 in test [2] was more than 128 µM.

Compound `CC(=O)O[C@H]1CC[C@@]2(C)[C@@H](CC(=O)[C@@H]3[C@@H]2CC[C@]2(C)[C@@H]([C@H](C)CCCC(C)(C)O)CC[C@@H]32)C1` returned a half-maximal inhibitory concentration (IC50) in the test on Vero of more than 128 µM. The compound also came in with an MIC90 in test [2] of more than 128 µM.

Turning to `CC(=O)O[C@H]1CC[C@@]2(C)C(=CC(=O)[C@H]3[C@@H]4CC[C@H]([C@H](C)CCCC(C)C)[C@@]4(C)CC[C@@H]32)C1` [7-OXOCHOLESTERYL ACETATE], the IC50 in the test on Vero is more than 128 µM. The MIC90 in test [2] is more than 128 µM.

`C[C@H](CCCC(C)(C)O)[C@H]1CC[C@H]2[C@@H]3[C@H](O)C[C@H]4C[C@@H](O)CC[C@]4(C)[C@H]3CC[C@]12C`: in test [2], the MIC90 was more than 128 µM.

In the test on Vero, `C[C@H](CCCC(C)(C)O)[C@H]1CC[C@H]2[C@@H]3[C@@H](O)C[C@H]4C[C@@H](O)CC[C@]4(C)[C@H]3CC[C@]12C` yielded an IC50 of more than 128 µM. For the same compound, the “Selectivity Index” value in test [1] is reported as more than 5.3. The compound also displayed an MIC90 in test [2] of 24 µM (≈ 10.1 µg/mL).

Turning to `C[C@H](CCCC(C)(C)O)[C@H]1CC[C@H]2[C@@H]3CC=C4C[C@@H](O)CC[C@]4(C)[C@H]3CC[C@]12C`, the IC50 in the test with Vero was more than 128 µM. In test [2], the MIC90 is more than 128 µM.
